Experimental data from patent US20240293418A1, “COMBINATION THERAPY FOR TREATING CANCER” (Epizyme, Inc., priority 2016, published 2024).
Read-outs that look alike come from different tables or passages of the source.

Tests used:
KMS-28-BM [1] = assay: 7-day co-treatment combination model (Cell Titer Glo); conditions: for IC50: KMS-28BM, 168 h, read-out: 7-day IC50; for combinatorial effect by Loewe volumes / Loewe volume: second agent + tazemetostat; for combinatorial effect by Loewe volumes: 7-day co-treatment, KMS-28-BM t(4;14); for Loewe volume: 7 day co-treatment, KMS-28-BM
Experimental: (§1) Assay plates were developed for endpoint analysis using Cell Titer Glo to measure ATP content, which was used as an indicator of cell viability. DMSO concentration was kept constant throughout the assay at less than 0.2% v/v.
(§2) All cells were maintained as instructed by the supplier and cultures were maintained at 37° C. in a humidified atmosphere and 5% CO2.
(§3) Loewe volumes greater than 1 denoted synergy and volumes <−1 denoted antagonism.

KMS-28-BM [2] = assay: 7 day pretreatment + 4-day co-treatment combination model (Cell Titer Glo); conditions: for IC50: KMS-28BM, 96 h, read-out: 4-day IC50; for Loewe volume / combinatorial effect by Loewe volumes: second agent + tazemetostat, 7 day pretreatment + 4-day co-treatment; for Loewe volume: KMS-28-BM; for combinatorial effect by Loewe volumes: KMS-28-BM t(4;14)
Experimental: as §1, §2, §3

LP-1 [3] = assay: as above; conditions: for IC50: Homo sapiens, LP-1, 96 h, read-out: 4-day IC50; for combinatorial effect by Loewe volumes: second agent + tazemetostat, 7 day pretreatment + 4-day co-treatment, LP-1 t(4;14)
Text: as §1
(§4) Cell lines: The cell lines MI1.S and U266B1 were obtained from American Type Culture Collection (ATCC; Rockville, MD). The cell lines LP-1, L-363 were obtained from Deutsche Sammlung von Mikroorganismen and Zellkulturen (DSMZ; Braunschweig, Germany) and the cell line KMS-28BM was obtained from Japanese Collection of Research Bioresources Cell Bank (JCRB, Osaka Japan). All cells were maintained as instructed by the supplier and cultures were maintained at 37° C. in a humidified atmosphere and 5% CO2.
as §3

MM1.S [4] = assay: as above; conditions: Homo sapiens, MM1.S, 96 h, read-out: 4-day IC50
Text: as §1, §4, §3

L-363 [5] = assay: as above; conditions: for IC50: Homo sapiens, L-363, 96 h, read-out: 4-day IC50; for combinatorial effect by Loewe volumes: second agent + tazemetostat, 7 day pretreatment + 4-day co-treatment, L-363 t(20;22)
Text: as §1, §4, §3

U266 [6] = assay: as above; conditions: for IC50: Homo sapiens, U-266, 96 h, read-out: 4-day IC50; for combinatorial effect by Loewe volumes: second agent + tazemetostat, 7 day pretreatment + 4-day co-treatment, U266 t(11;14)
Text: as §1, §4, §3

RPMI-8226 [7] = assay: 7-day co-treatment combination model (Cell Titer Glo)
Experimental: as §1
(§5) Cell lines: The cell lines MI1.S and U266B1 were obtained from American Type Culture Collection (ATCC; Rockville, MD). […] All cells were maintained as instructed by the supplier and cultures were maintained at 37° C. in a humidified atmosphere and 5% CO2.
as §3

MM1.S [8] = assay: as above; conditions: Homo sapiens, 168 h, read-out: 7-day IC50
Experimental: as §1, §5, §3

LP-1 [9] = assay: as above; conditions: for combinatorial effect by Loewe volumes: 7-day co-treatment, LP-1 t(4;14)
Experimental: as §1, §2, §3

Jeko-1 [10] = assay: mantle cell lymphoma 7 day co-treatment model; format: cell-based
U266 [11] = test system: U266
Experimental: as §1, §5, §3

Jeko-1 [12] = assay: mantle cell lymphoma 7 day pretreatment + 4-day co-treatment model (Cell Titer Glo)
Text: Cells were then co-treated in triplicate with a second compound, 3-fold serially diluted for additional 4 days. After this time, plates were developed for endpoint analysis using Cell Titer Glo to measure ATP content, which is used as an indicator of cell viability.
A Loewe volume greater than 1 denoted synergy. A Loewe volume between −1 and 1 denoted additivity, and a negative Loewe volume of less than −1, denoted antagonism.

L-363 [13] = test system: L-363
Experimental: as §1, §5, §3

MOLP-8 [14] = assay: 7-day co-treatment combination model (Cell Titer Glo); conditions: second agent + tazemetostat; for combinatorial effect by Loewe volumes: 7-day co-treatment, MOLP-8 t(11;14); for Loewe volume: 7 day co-treatment, MOLP-8
Experimental: as §1, §2, §3

MOLP-8 [15] = assay: 7 day pretreatment + 4-day co-treatment combination model (Cell Titer Glo); conditions: second agent + tazemetostat, MOLP-8 t(11;14)
Experimental: as §1, §2, §3

[16] = test system: multiple myeloma cell lines and primary patient samples; conditions: reported in the literature; cited from earlier work
RPMI-8226 [17] = assay: apoptosis in RPMI-8226 cells; format: cell-based; conditions: tazemetostat 31, 125, 500 nM + pomalidomide 3, 12.5, 50 nM, 3 days
[18] = test system: Ikaros, Aiolos, IRF4 expression in RPMI-8226 cells; assay: western blot of Ikaros, Aiolos, IRF4 in RPMI-8226 cells; format: cell-based; conditions: 3 days
[19] = second agent + tazemetostat, 7 day co-treatment
[20] = second agent + tazemetostat, 7 day pretreatment + 4-day co-treatment, Jeko-1

## CC(C)C[C@H](NC(=O)[C@H](Cc1ccccc1)NC(=O)c1cnccn1)B(O)O [Bortezomib, bortezomib]
KMS-28-BM [1]
  IC50: 5.22 nM
KMS-28-BM [2]
  IC50: 3 nM
LP-1 [3]
  IC50: 3 nM
MM1.S [4]
  IC50: 1.4 nM
L-363 [5]
  IC50: 5 nM
U266 [6]
  IC50: 2 nM
RPMI-8226 [7]; second agent + tazemetostat, 7 day co-treatment, printed in Loewe volume column
  vbliss: vbliss: 0.24
MM1.S [8]
  IC50: 1.92 nM

## C[C@@H]1C[C@H]2[C@@H]3CCC4=CC(=O)C=C[C@]4(C)[C@@]3(F)[C@@H](O)C[C@]2(C)[C@@]1(O)C(=O)CO [Dexamethasone, dexamethasone]
KMS-28-BM [1]
  IC50: 2.7 nM
  combinatorial effect by Loewe volumes: S (Synergy)
  Loewe volume: 4.34
KMS-28-BM [2]
  IC50: 6 nM
  Loewe volume: 2.45
  combinatorial effect by Loewe volumes: S (Synergy)
LP-1 [9]; Homo sapiens, LP-1, 168 h, read-out: 7-day IC50
  IC50: 5 nM
LP-1 [9]; second agent + tazemetostat
  combinatorial effect by Loewe volumes: S (Synergy)
LP-1 [9]; second agent + tazemetostat, 7 day co-treatment, LP-1
  Loewe volume: 4.79
Jeko-1 [10]; Homo sapiens, 168 h, second agent alone, 7 day co-treatment model
  IC50: 780 nM
Jeko-1 [10]; [19]
  Best CI: 0.16
  Bliss Volume: 2.96
  HSA Volume: 5.19
  Loewe Volume: 4.32
  Synergy Score: 4.36
U266 [11]
  IC50: > 10000 nM
LP-1 [3]
  IC50: 4 nM
  combinatorial effect by Loewe volumes: S (Synergy)
Jeko-1 [12]; Homo sapiens, JeKo-1, 96 h, read-out: Second agent IC50
  IC50: > 10000 nM
Jeko-1 [12]; [20]
  Best CI: 0.22
  Bliss Volume: 4.48
  HSA Volume: 7.04
  Loewe Volume: 6.91
  Synergy Score: 6.33
MM1.S [4]
  IC50: 12 nM
L-363 [5]
  IC50: 7 nM
  combinatorial effect by Loewe volumes: A (Additive)
L-363 [13]
  IC50: 3.5 nM
U266 [6]
  IC50: > 10000 nM
  combinatorial effect by Loewe volumes: A (Additive)
MOLP-8 [14]
  combinatorial effect by Loewe volumes: S (Synergy)
  Loewe volume: 3.61
MOLP-8 [15]
  combinatorial effect by Loewe volumes: S (Synergy)
RPMI-8226 [7]; [19]
  Loewe volume: 1.73
MM1.S [8]
  IC50: 7 nM

## CCCc1cc(C)[nH]c(=O)c1CNC(=O)c1cc(-c2ccnc(N3CCN(C)CC3)c2)cc2c1cnn2C(C)C [GSK343]
[16]
  growth of multiple myeloma cell lines and primary patient samples: inhibited

## Cc1[nH]c2ccccc2c1CCNCc1ccc(/C=C/C(=O)NO)cc1 [Panobinostat, panobinostat]
KMS-28-BM [1]
  IC50: 1.26 nM
  combinatorial effect by Loewe volumes: S (Synergy)
  Loewe volume: 5.19
KMS-28-BM [2]
  IC50: 2.5 nM
  Loewe volume: 2.03
  combinatorial effect by Loewe volumes: S (Synergy)
LP-1 [9]; second agent + tazemetostat
  combinatorial effect by Loewe volumes: S (Synergy)
LP-1 [3]
  IC50: 3 nM
  combinatorial effect by Loewe volumes: S (Synergy)
MM1.S [4]
  IC50: 5.8 nM
L-363 [5]
  IC50: 3 nM
  combinatorial effect by Loewe volumes: S (Synergy)
U266 [6]
  IC50: 5 nM
  combinatorial effect by Loewe volumes: S (Synergy)
MOLP-8 [14]
  combinatorial effect by Loewe volumes: S (Synergy)
  Loewe volume: 2.14
MOLP-8 [15]
  combinatorial effect by Loewe volumes: A (Additive)
RPMI-8226 [7]; [19]
  Loewe volume: 2.24
MM1.S [8]
  IC50: 1.34 nM

## Nc1cccc2c1C(=O)N(C1CCC(=O)NC1=O)C2=O (stereo not drawn) [Pomalidomide, pomalidomide]
RPMI-8226 [17]
  apoptosis: enhanced apoptosis
KMS-28-BM [1]
  IC50: 100 nM
  combinatorial effect by Loewe volumes: S (Synergy)
  Loewe volume: 7.65
KMS-28-BM [2]
  IC50: 2540 nM
  Loewe volume: 6.37
  combinatorial effect by Loewe volumes: S (Synergy)
LP-1 [9]; second agent + tazemetostat
  combinatorial effect by Loewe volumes: S (Synergy)
LP-1 [3]
  IC50: 106 nM
  combinatorial effect by Loewe volumes: S (Synergy)
MM1.S [4]
  IC50: 47 nM
L-363 [5]
  IC50: 69 nM
  combinatorial effect by Loewe volumes: S (Synergy)
U266 [6]
  IC50: > 10000 nM
  combinatorial effect by Loewe volumes: S (Synergy)
[18]; pomalidomide + tazemetostat vs either alone
  IRF4 expression, combined treatment: enhances repression of IRF4
[18]; single agent 12.5, 50 or 200 nM
  Ikaros and Aiolos levels: results in Ikaros and Aiolos degradation
MOLP-8 [14]
  combinatorial effect by Loewe volumes: S (Synergy)
  Loewe volume: 5.73
MOLP-8 [15]
  combinatorial effect by Loewe volumes: S (Synergy)
RPMI-8226 [7]; pomalidomide + tazemetostat, 7-day combination assay (FIG. 8)
  curve shift analysis of combination: synergy
RPMI-8226 [7]; [19]
  Loewe volume: 3.9
MM1.S [8]
  IC50: 35.2 nM

## CCN(c1cc(-c2ccc(CN3CCOCC3)cc2)cc(C(=O)NCc2c(C)cc(C)[nH]c2=O)c1C)C1CCOCC1 [Tazemetostat, tazemetostat]
[18]; single agent 31, 125 or 500 nM
  IRF4 expression, single agent: reduces TRF4 expression
